Values quoted from earlier work in patent US9023853B2, “Janus kinase 2 (JAK2) inhibitor for the treatment of lupus” (Cephalon, Inc., priority 2010, dated 2015).
Where two headings read alike, the source gives them in different places.

Details: cited from earlier work

Row | SMILES | effectiveness in rheumatoid arthritis (doses of 4-10 mg once daily) | effectiveness in rheumatoid arthritis (doses of 5-30 mg twice per day)
1 | CCS(=O)(=O)N1CC(CC#N)(n2cc(-c3ncnc4[nH]ccc34)cn2)C1 [INCB028050] | effective | –
2 | CC1CCN(C(=O)CC#N)CC1N(C)c1ncnc2[nH]ccc12 (stereo in doubt) [tasocitinib] | – | effective
